# Reference: article PMC6688628, “N-Substituted Pyrrole Derivative 12m Inhibits HIV-1 Entry by Targeting Gp41 of HIV-1 Envelope Glycoprotein” (Frontiers in Pharmacology, 2019)
# Like-named read-outs stand apart in the source and are kept apart here.
# Key:
# [1] = system: R5 and X4 HIV-1 strains (Env pseudotyped viruses); type: cell-based
# [2] = system: HIV-1; design: method as in Jiang et al., 2004; conditions: inhibition of HIV-1 entry; ref Jiang et al., 2004; cited from earlier work
# [3] = system: HIV-1 NL4-3(36G)V38A; conditions: T20-resistant NL4-3(36G)V38A; p24 ELISA; mean ± SD
# [4] = system: HIV-1 93/BR/020; test: microbe, parasite or virus in culture; type: cell-based
# Description: (§1) The HIV-1 replication-inhibiting activity of compounds was determined as previously described ([Li et al., 2013]). Briefly, 1 × 10^4 TZM-bl or MT-2 cells were infected with primary HIV-1 strains or T20-resistant HIV-1 strains (100 TCID50) in 200 µl of RPMI-1640 medium containing 10% FBS in the presence or absence of compounds at graded concentrations for 12 h. The culture medium was replaced with fresh medium without the compounds. After culture for an additional 48 h, supernatants or cells were collected from each well. For the primary HIV-1 strains, the cells were treated using a luciferase kit. Briefly, the cells were lysed with the lysis reagent and were transferred into a 96-well flat-bottom luminometer plate after three washes with phosphate-buffered saline (PBS) (Costar Corning Inc., Corning, NY), followed by addition of the luciferase substrate included in the luciferase kit (Promega Corp., Madison, WI). The luciferase activity was measured immediately by an Ultra 384 microplate reader (Tecan, Research Triangle Park, NC). T20 was used as a positive control. For the T20-resistant HIV-1 strains, 100 µl of culture supernatant was mixed with 100 µl of 5% Triton X-100. Then, those virus lysates were assayed for p24 antigen by enzyme linked immunosorbent assay (ELISA) as previously described ([Li et al., 2010]). Absorbance at 450 nm was recorded in an ELISA reader (Ultra 384, Tecan). EC50 values were calculated using the computer program CalcuSyn ([Chou and Talalay, 1984]).
# [5] = system: HIV-1 BCF02; test: microbe, parasite or virus in culture; type: cell-based
# Description: as §1
# [6] = system: HIV-1 US4 (GS 007); test: microbe, parasite or virus in culture; type: cell-based
# Description: as §1
# [7] = system: HIV-1 NL4-3(36G)V38A,N42T; conditions: T20-resistant NL4-3(36G)V38A,N42T; p24 ELISA; mean ± SD
# [8] = system: HIV-1 NL4-3(36G)V38A,N42D; conditions: T20-resistant NL4-3(36G)V38A,N42D; p24 ELISA; mean ± SD
# [9] = system: HIV-1 NL4-3(36G)N42T,N43K; conditions: T20-resistant NL4-3(36G)N42T,N43K; p24 ELISA; mean ± SD
# [10] = system: HIV-1 NL4-3(36G)V38E,N42S; conditions: T20-resistant NL4-3(36G)V38E,N42S; p24 ELISA; mean ± SD
# [11] = system: HIV-1JR-FL Env mutant K574A pseudovirus; type: cell-based; conditions: compared with wild-type HIV-1JR-FL pseudovirus
# [12] = system: HIV-1 NL4-3D36G; type: cell-based; conditions: T20-sensitive parent strain, p24 ELISA, mean ± SD
# [13] = system: HIV-1 92UG029; test: Anti-HIV-1 activity, primary strain 92UG029; type: cell-based; conditions: luciferase readout, mean ± SD
Compound,IC50 [3] [nM],IC90 [3] [nM],IC50 [7] [nM],IC90 [7] [µM],IC50 [8] [nM],IC90 [8] [µM],IC50 [9] [nM],IC90 [9] [µM],IC50 [10] [nM],IC90 [10] [nM],also measured
c1cc(CN2CCCNCCNCCCNCC2)ccc1CN1CCCNCCNCCCNCC1 [AMD3100],–,–,–,–,–,–,–,–,–,–,inhibitory activity against the R5 and X4 HIV-1 strains [1]: strong inhibitory activity
O=C(O)c1cc(-n2cccc2)ccc1Cl [NB-64],–,–,–,–,–,–,–,–,–,–,effective concentration for 50% inhibition (EC50) [2]: on the µM level
Enfuvirtide,279 ± 82,> 2000,> 2000,> 2,895 ± 310,> 2,> 2000,> 2,> 2000,> 2000,"IC90 ([4]; 93/BR/020, 12 h): 0.313 ± 0.022 µM; IC50 ([5]; BCF02, 12 h): 50 ± 22 nM; IC90 ([5]; BCF02, 12 h): 502 ± 338 nM; IC50 ([6]; US4 (GS 007, 12 h)): 59 ± 10 nM; IC90 ([6]; US4 (GS 007, 12 h)): 1.43 ± 0.443 µM; inhibitory activity against the R5 and X4 HIV-1 strains ([1]; positive controls, single-cycle pseudovirus infection): strong inhibitory activity"
COc1ccc(S(=O)(=O)[O-])cc1N=Nc1c(S(=O)(=O)[O-])cc2cc(Nc3nc(Nc4ccccc4)nc(Nc4cc(C)c(N=Nc5cc(S(=O)(=O)[O-])cc6cc(S(=O)(=O)[O-])cc(O)c56)cc4OC)n3)ccc2c1O.[Na+].[Na+].[Na+].[Na+] [ADS-J1],160 ± 40,400 ± 50,620 ± 160,8.39 ± 1.55,650 ± 180,8.2 ± 2.65,610 ± 250,4.24 ± 1.21,110 ± 10,330 ± 10,"inhibitory activity against K574A mutant pseudovirus [11]: exerted inhibitory activity; IC50 ([4]; primary strain 93/BR/020, luciferase readout, mean ± SD): 13 ± 3.49 µM; IC90 ([4]; primary strain 93/BR/020, luciferase readout, mean ± SD, read-out: IC90): 26.9 ± 4.3 µM; IC50 ([5]; primary strain BCF02, luciferase readout, mean ± SD, read-out: IC50): 1450 ± 260 nM; IC90 ([5]; primary strain BCF02, luciferase readout, mean ± SD, read-out: IC90): 3060 ± 420 nM; IC50 ([6]; primary strain US4 (GS 007), luciferase readout, mean ± SD, read-out: IC50): 4620 ± 760 nM; IC90 ([6]; primary strain US4 (GS 007), luciferase readout, mean ± SD, read-out: IC90): 9.9 ± 1.44 µM; IC50 [12]: 940 ± 30 nM; IC90 [12]: 2030 ± 200 nM; IC50 [13]: 20.6 ± 5.29 µM; IC90 [13]: 32.1 ± 6.71 µM"
